From publication PMC4232301 (Organic & biomolecular chemistry, 2012) come the findings set out here.

This assay addresses [KS6AT6] (DEBS module 6 ketosynthase-acyltransferase didomain) (Saccharopolyspora erythraea, UniProt Q03133). Kind of assay: LC-MS of tryptic digest, methylmalonyl transfer to holo-ACP2. It is filed as biochemical. Conditions: acyl acceptor purified holo-ACP2; AT domain; 30 min.

Chain of [KS6AT6] (DEBS module 6 ketosynthase-acyltransferase didomain) (Q03133 1475-2340 limits assumed): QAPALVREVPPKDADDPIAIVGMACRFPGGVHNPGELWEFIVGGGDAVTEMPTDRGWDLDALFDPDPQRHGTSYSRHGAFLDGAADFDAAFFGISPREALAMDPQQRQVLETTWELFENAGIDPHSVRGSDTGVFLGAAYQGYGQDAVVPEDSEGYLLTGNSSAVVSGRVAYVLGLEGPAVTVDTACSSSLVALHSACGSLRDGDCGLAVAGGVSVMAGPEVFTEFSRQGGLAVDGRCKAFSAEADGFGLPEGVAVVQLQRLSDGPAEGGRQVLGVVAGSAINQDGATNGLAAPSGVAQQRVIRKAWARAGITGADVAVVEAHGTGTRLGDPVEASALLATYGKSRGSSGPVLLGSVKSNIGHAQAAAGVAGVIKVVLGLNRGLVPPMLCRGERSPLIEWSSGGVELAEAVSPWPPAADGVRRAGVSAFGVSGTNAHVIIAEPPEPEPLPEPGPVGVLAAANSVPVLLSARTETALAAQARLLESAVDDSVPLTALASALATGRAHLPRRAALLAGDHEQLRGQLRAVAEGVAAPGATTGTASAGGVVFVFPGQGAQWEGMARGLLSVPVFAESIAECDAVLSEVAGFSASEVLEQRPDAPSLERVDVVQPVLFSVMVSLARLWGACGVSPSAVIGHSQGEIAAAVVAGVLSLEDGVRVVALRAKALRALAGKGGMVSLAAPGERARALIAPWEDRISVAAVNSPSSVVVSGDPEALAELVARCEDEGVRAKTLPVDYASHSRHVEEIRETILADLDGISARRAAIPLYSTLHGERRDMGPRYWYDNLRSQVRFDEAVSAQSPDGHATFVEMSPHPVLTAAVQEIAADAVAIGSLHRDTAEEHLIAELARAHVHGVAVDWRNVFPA

As to `CC(C(=O)O)C(=O)SCCNC(=O)CCNC(=O)[C@H](O)C(C)(C)COP(=O)(O)OP(=O)(O)OC[C@H]1O[C@@H](n2cnc3c(N)ncnc32)[C@H](O)[C@@H]1OP(=O)(O)O` (stereo partly shown) [methylmalonyl-CoA], the “LC-MS of tryptic digest, methylmalonyl transfer to holo-ACP2” value was “purified ACP remains competent for AT-ACP methylmalonate transfer”.
